# According to patent US5239058A, “Proteins having anticoagulant properties” (Merck & Co., Inc., priority 1992, dated 1993):
# pKi: −log10 of the molar value.
# Columns and labels:
# [1] = test system: Normal Human Plasma; test: Modified Stypven Time, plasma based clotting assay; type: biochemical
# [2] = molecular target: T1, trypsin (Bos taurus, UniProt P00760); test: trypsin chromogenic enzyme assay; type: biochemical, bovine; conditions: 300-fold molar excess of TAP-1 over protease
# T1 construct: purchased Worthington Enzymes, Inc
# T1 sequence (P00760 24-246): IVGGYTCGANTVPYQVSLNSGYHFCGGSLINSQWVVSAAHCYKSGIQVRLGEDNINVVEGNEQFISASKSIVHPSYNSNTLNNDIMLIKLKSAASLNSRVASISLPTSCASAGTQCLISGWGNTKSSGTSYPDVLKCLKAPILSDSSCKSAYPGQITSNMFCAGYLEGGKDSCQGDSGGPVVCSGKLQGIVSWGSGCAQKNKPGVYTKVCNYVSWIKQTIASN
# Text: (§1) Ornithodoros moubata ticks were obtained from South Africa through Antibody Associates, Inc. (Bedford, Tex.). Colorimetric substrates were purchased from Helena Labs, American Diagnostica, and Chemical Dynamics. Human Factor Xa was from Enzyme Research Laboratories. Human plasmin, urokinase, and bovine thrombin were from Calbiochem; bovine trypsin, chymotrypsin, and pancreatic elastase were from Worthington Enzymes, Inc. Plasma kallikrein, carboxypeptidase Y, S. aureus V8 protease and protease inhibitors were from Sigma. Two chain tPA was from American Diagnostica.
# (§2) Assays were carried out at room temperature in 96-well microtiter plates. […] The concentration of Factor Xa was determined by active site titration. The concentrations of working solutions of the other proteases were determined spectrophotometrically using published extinction coefficients. The concentration of purified inhibitor was determined by quantitative amino acid analysis. […]
# (§3) Because the TAP-1 was pre-incubated with the human Factor Xa to establish equilibrium in the absence of substrate, a value for the intrinsic Ki irrespective of the mechanism was calculated (solid line) using the equation for tight binding inhibition described in the article by Morrison, J. F. in Biochem. Biophys. […]
# [3] = molecular target: S. aureus V8 protease (Staphylococcus aureus, UniProt P0C1U8); conditions: 300-fold molar excess of TAP-1 over protease
# Chain of S. aureus V8 protease (P0C1U8 69-336): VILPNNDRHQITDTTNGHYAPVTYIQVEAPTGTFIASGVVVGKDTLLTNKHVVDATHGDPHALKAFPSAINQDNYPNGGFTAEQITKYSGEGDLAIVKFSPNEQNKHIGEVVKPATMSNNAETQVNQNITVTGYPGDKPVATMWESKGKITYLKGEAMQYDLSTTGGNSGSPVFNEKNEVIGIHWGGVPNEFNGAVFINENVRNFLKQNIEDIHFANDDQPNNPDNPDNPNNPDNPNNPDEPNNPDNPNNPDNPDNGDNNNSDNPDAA
# Text: as §1, §2, §3
# [4] = molecular target: T2, human Factor Xa (Homo sapiens, UniProt P00742); test: Factor Xa chromogenic enzyme assay (Spectrozyme Xa); type: biochemical; conditions: for pKi: inhibitor pre-incubated with human Factor Xa, tight binding equation, read-out: Ki for inhibition of Factor Xa
# T2 construct: purchased Enzyme Research Laboratories
# T2 sequence (P00742 235-488 limits assumed): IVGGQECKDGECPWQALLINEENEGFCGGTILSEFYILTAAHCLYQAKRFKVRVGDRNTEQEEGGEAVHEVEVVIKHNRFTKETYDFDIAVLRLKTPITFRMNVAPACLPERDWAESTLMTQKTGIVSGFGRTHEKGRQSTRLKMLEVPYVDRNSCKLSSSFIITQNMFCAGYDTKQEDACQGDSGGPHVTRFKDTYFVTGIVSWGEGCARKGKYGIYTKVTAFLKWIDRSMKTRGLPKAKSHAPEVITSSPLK
# T2 sequence (P00742 41-179 partner limits assumed): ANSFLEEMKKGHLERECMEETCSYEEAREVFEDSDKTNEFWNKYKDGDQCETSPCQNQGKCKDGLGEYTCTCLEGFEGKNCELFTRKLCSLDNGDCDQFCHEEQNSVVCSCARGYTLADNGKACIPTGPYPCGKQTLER
# Description: (§4) Assays were carried out at room temperature in 96-well microtiter plates. The color developed from the hydrolysis of peptide-nitroanilide substrates was monitored continuously at 405 nM on a Vmax machine (Molecular Devices). The concentration of Factor Xa was determined by active site titration. The concentrations of working solutions of the other proteases were determined spectrophotometrically using published extinction coefficients. The concentration of purified inhibitor was determined by quantitative amino acid analysis. […] In the case of human Factor Xa, the buffers also included 0.1% BSA; for S. aureus V8 protease the buffer was 50 mM NH4 HCo3. The substrates used were: Spectrozyme Xa (Factor Xa), S-2238 (thrombin), S-2356 (chymotrypsin), S-2366 (Factor XIa) Boc-AlaAla-Pro-Ala-pNA (elastase), Spectrozyme Pkal (kallikrein), Spectrozyme PL (plasmin), Spectrozyme UK (urokinase) Z-Phe-Leu-Glu-pNA (S. aureus V8 protease) and Spectrozyme tPA for tPA. Factor VIIa was assayed by measuring the release of the ^3 H-activation peptide from human Factor X. For kinetic analyses, assays were carried for up to 10 min. followed by estimation of the initial rate where less than 5% of the added substrate was utilized.
# Because the TAP-1 was pre-incubated with the human Factor Xa to establish equilibrium in the absence of substrate, a value for the intrinsic Ki irrespective of the mechanism was calculated (solid line) using the equation for tight binding inhibition described in the article by Morrison, J. F. in Biochem. Biophys. Acta 185,269 (1969). The effect on TAP-1 on various proteases also was tested.
# [5] = molecular target: T3, thrombin (Bos taurus, UniProt P00735); test: thrombin chromogenic enzyme assay (S-2238); type: biochemical, bovine; conditions: 300-fold molar excess of TAP-1 over protease
# T3 construct: responsible for the Factor Xa conversion of prothrombin to thrombin in vivo; purchased Calbiochem
# Text: as §1, §2, §3
# [6] = test system: Normal Human Plasma; test: Activated Partial Thromboplastin Time, plasma based clotting assay; type: biochemical
# [7] = molecular target: Factor VIIa (Homo sapiens, UniProt P08709); test: Factor VIIa assay (release of 3H-activation peptide from human Factor X); type: biochemical; conditions: 300-fold molar excess of TAP-1 over protease
# Chain of Factor VIIa (P08709 213-466 limits assumed): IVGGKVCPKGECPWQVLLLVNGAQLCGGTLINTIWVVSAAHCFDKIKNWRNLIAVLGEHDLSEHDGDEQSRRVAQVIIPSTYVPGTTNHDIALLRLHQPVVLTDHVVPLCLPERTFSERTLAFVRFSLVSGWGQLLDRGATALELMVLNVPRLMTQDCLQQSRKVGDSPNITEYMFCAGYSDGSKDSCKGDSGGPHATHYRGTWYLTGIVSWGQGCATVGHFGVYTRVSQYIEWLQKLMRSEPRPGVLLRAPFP
# Chain of Factor VIIa (P08709 61-212 partner limits assumed): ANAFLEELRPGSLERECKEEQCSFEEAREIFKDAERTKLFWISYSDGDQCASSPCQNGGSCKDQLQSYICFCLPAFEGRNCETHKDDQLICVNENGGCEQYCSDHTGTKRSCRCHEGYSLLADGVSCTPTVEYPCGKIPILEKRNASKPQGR
# Chain of Factor VIIa (P13726 33-295 partner): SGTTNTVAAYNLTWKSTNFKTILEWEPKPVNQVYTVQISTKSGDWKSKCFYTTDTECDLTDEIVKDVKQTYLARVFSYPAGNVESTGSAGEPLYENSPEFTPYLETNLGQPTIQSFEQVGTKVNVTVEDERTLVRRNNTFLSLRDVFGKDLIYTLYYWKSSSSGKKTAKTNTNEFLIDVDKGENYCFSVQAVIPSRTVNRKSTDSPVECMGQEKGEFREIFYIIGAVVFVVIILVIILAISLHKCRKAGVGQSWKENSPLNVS
# Description: as §4, with “Factor VIIa was assayed by measuring the release of the ^3 H-activation peptide from human Factor X. For kinetic analyses, assays were carried for up to 10 min. followed by estimation of the initial rate where less than 5% of the added substrate was utilized.” left out
# as §3
# [8] = molecular target: T4, urokinase (Homo sapiens, UniProt P00749); test: urokinase chromogenic enzyme assay (Spectrozyme UK); type: biochemical; conditions: 300-fold molar excess of TAP-1 over protease
# T4 construct: purchased Calbiochem
# Text: as §1, §2, §3
# [9] = test system: Normal Human Plasma; test: Prothrombin Time, plasma based clotting assay; type: biochemical
# [10] = molecular target: T5, Plasma kallikrein (Homo sapiens, UniProt P03952); test: kallikrein chromogenic enzyme assay (Spectrozyme Pkal); type: biochemical; conditions: 300-fold molar excess of TAP-1 over protease
# T5 construct: purchased Sigma
# T5 sequence (P03952 391-638 limits assumed, species assumed): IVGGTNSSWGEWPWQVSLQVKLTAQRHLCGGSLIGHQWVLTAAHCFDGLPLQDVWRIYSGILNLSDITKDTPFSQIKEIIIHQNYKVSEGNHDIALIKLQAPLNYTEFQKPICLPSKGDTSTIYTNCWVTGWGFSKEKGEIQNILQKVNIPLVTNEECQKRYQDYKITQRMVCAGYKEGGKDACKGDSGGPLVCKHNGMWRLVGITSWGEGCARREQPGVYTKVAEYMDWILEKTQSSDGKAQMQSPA
# T5 sequence (P03952 20-390 partner limits assumed, species assumed): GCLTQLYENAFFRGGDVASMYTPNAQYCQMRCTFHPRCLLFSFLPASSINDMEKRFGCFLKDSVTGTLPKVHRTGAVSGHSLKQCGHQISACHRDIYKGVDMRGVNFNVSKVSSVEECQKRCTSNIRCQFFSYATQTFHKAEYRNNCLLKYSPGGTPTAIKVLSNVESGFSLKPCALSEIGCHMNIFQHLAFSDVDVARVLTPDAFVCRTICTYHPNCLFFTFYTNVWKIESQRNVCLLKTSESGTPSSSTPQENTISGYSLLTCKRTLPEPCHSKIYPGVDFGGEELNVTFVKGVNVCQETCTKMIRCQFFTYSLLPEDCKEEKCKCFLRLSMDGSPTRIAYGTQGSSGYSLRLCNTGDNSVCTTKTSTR
# Text: as §1, §2, §3
# [11] = molecular target: T6, plasmin (Homo sapiens, UniProt P00747); test: plasmin chromogenic enzyme assay (Spectrozyme PL); type: biochemical; conditions: 300-fold molar excess of TAP-1 over protease
# T6 construct: Human plasmin, urokinase, and bovine thrombin were from Calbiochem; purchased Calbiochem
# T6 sequence (P00747 581-810 limits assumed): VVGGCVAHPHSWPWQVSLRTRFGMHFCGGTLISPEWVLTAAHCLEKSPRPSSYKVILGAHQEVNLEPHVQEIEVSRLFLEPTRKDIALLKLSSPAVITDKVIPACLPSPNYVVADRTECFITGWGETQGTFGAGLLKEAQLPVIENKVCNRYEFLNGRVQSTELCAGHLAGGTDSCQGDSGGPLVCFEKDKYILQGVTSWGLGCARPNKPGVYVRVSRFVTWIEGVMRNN
# T6 sequence (P00747 97-580 partner limits assumed): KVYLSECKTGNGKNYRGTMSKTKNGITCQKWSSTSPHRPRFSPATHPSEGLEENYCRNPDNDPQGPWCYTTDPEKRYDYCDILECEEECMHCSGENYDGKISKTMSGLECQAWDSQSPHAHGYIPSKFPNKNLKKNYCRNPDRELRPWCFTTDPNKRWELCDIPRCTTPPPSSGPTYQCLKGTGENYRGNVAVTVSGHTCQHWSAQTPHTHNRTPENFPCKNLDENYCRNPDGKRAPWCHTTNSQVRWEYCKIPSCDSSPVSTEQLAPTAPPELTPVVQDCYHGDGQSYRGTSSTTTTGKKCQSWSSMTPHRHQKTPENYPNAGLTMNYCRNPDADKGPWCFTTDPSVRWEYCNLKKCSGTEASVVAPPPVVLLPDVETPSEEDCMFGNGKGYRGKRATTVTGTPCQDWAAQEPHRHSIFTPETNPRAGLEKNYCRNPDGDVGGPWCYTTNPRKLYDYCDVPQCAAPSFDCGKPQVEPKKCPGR
# Text: as §1, §2, §3
# [12] = molecular target: T7, chymotrypsin (Bos taurus, UniProt P00766); test: chymotrypsin chromogenic enzyme assay (S-2356); type: biochemical, bovine; conditions: 300-fold molar excess of TAP-1 over protease
# T7 construct: purchased Worthington Enzymes, Inc
# Text: as §1, §2, §3
# [13] = molecular target: T8, pancreatic elastase (Sus scrofa, UniProt P00772); test: elastase chromogenic enzyme assay (Boc-AlaAla-Pro-Ala-pNA); type: biochemical; conditions: 300-fold molar excess of TAP-1 over protease
# T8 construct: purchased Worthington Enzymes, Inc
# T8 sequence (P00772 27-266): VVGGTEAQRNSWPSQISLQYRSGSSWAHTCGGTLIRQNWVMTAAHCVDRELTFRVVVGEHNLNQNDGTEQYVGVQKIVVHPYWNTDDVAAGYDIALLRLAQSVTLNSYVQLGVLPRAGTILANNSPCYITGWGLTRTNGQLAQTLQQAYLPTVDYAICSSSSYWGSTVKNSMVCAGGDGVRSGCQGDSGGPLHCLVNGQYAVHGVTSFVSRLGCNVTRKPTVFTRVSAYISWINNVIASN
# Text: as §1, §2, §3
# [14] = test system: thromboplastin-induced clot formation; test: in vivo model of thromboplastin-induced clot formation (jugular vein); set-up: species or system rabbit; conditions: rabbits, untreated 29.2±3.4%
# Description: An in vivo model of thromboplastin-induced clot formation similar to Van Ryn-McKenna, et al., (1989) Thrombosis and Haemostasis 61:7-9 was used to determine the efficacy of the Factor Xa inhibitor recombinant TAP-1. Rabbits were pretreated with an infusion of recombinant TAP-1 for 60 minutes, at which time a segment of the jugular vein was isolated and occluded. Thromboplastin and whole blood withdrawn from the carotid artery were injected into the segment in order to induce clot formation. The jugular vein remained occluded for 30 minutes before the clot was removed and quantitated.
# [15] = test system: activated partial thromboplastin time; test: activated partial thromboplastin time in infused rabbits; type: in vivo, rabbit; conditions: i.v. infusions of 7, 37 and 64 μg/kg/min
# [16] = test system: prothrombin time; test: prothrombin time in infused rabbits; type: in vivo, rabbit; conditions: i.v. infusions of 7, 37 and 64 μg/kg/min
# [17] = 28.9 pMol TAP-1, Normal Human Plasma
# [18] = 57.8 pMol TAP-1, Normal Human Plasma
# [19] = 115 pMol TAP-1, Normal Human Plasma
substance,measurement,setting,value
"TAP-1: 60 amino acid Factor Xa inhibitor protein purified from Ornithodoros moubata tick extracts (YNRLCIKPRDWIDECDSNEGGERAYFRNGKGGCDSFWICPEDHTGADYYSSYRDCFNACI; UniProt P17726 1-60, looked up)","Clotting Time, Modified Stypven Time",[1]; [17],17.7 s
same,"Clotting Time, Modified Stypven Time",[1]; [18],31.2 s
same,"Clotting Time, Modified Stypven Time",[1]; [19],65.1 s
same,inhibition of trypsin,[2],no inhibition
same,inhibition of S. aureus V8 protease,[3],no inhibition
same,effect of Ca++ on the ability to inhibit Factor Xa,[4]; inclusion of 1-5 mM Ca++,no effect
same,pKi,[4],9.24
same,inhibition of thrombin,[5],no inhibition
same,"Clotting Time, Activated Partial Thromboplastin Time",[6]; [17],45.2 s
same,"Clotting Time, Activated Partial Thromboplastin Time",[6]; [18],57.7 s
same,"Clotting Time, Activated Partial Thromboplastin Time",[6]; [19],92.2 s
same,inhibition of Factor VIIa,[7],no inhibition
same,inhibition of urokinase,[8],no inhibition
same,"Clotting Time, Prothrombin Time","[9]; 1.15 pMol TAP-1, Normal Human Plasma",15.1 s
same,"Clotting Time, Prothrombin Time",[9]; [17],28.9 s
same,"Clotting Time, Prothrombin Time",[9]; [18],31.2 s
same,"Clotting Time, Prothrombin Time",[9]; [19],48.7 s
same,inhibition of kallikrein,[10],no inhibition
same,inhibition of plasmin,[11],no inhibition
same,inhibition of chymotrypsin,[12],no inhibition
same,inhibition of elastase,[13],no inhibition
"recombinant TAP-1: TAP-1 expressed from a synthetic gene in S. cerevisiae and purified from broth (YNRLCIKPRDWIDECDSNEGGERAYFRNGKGGCDSFWICPEDHTGADYYSSYRDCFNACI; UniProt P17726 1-60, looked up)",Clot formation (normalized clot value),[14]; i.v. infusion 7 μg/kg/min for 60 minutes,27.0±7.5%
same,Clot formation (normalized clot value),[14]; i.v. infusion 37 μg/kg/min for 60 minutes,7.9±2.0%
same,Clot formation (normalized clot value),[14]; i.v. infusion 64 μg/kg/min for 60 minutes,1.9±1.0%
same,effect on activated partial thromboplastin time,[15],did not significantly increase
same,pKi,[4],9.70
same,effect on prothrombin time,[16],did not significantly increase
